Assay results from paper PMC10861593, “Kisspeptin-10 binding to Gpr54 in osteoclasts prevents bone loss by activating Dusp18-mediated dephosphorylation of Src” (Nature Communications, 2024).
Entries after “also recorded” stand apart in the source; their conditions may differ.

How the values were obtained:
[1] = tested on: phosphatases co-immunoprecipitated with Gpr54; assay: mass spectrometry of anti-Gpr54 IP; assay type: cell-based, mouse; details: RAW264.7 cells, Kp-10 20 min
Procedure: For mass spectrometry (MS) analysis, anti-Gpr54 IP was performed with the whole-cell lysates derived from two 10-cm dishes of RAW264.7 cells with or without Kp-10 treatment for 20 min. The protein complexes after Co-IP were extensively washed with PBS, followed by on-bead digestion. Mass spectra were acquired on a Q-Exactive mass spectrometer (Thermo Scientific, Bremen, Germany). The raw mass spectrometry data were searched against the mouse IPI databases (version 3.86, released on June 28, 2012) using the Proteome Discoverer software suite (Thermo Scientific, San Jose, USA) utilizing a label-free quantification feature. The mass spectrometry proteomics data have been deposited to the ProteomeXchange Consortium via the PRIDE[52] partner repository with the dataset identifier PXD038433.

[2] = tested on: DUSP18, Src, and GPR54 complex; assay: Co-IP: DUSP18, Src and GPR54 heterotrimer complex formation in transfected 293T cells; assay type: cell-based; details: 293T with HA-Src, GPR54-Myc, DUSP18 (C104S)-Flag, Kp-10 20 min
Procedure: Anti-Flag IP derived from 293 T cells transfected with HA-Src and either DUSP18-Flag or DUSP18 (C104S)-Flag constructs with or without Kp-10 treatment for 20 min were lysed and subjected to anti-FLAG IP (b). Phosphatase reaction products using His-DUSP18 and His-DUSP18 (C104S) proteins purified from E. coli and SRC proteins purified from Sf9 insect cells (c) and quantification of protein levels (d). Anti-Src IP derived from RAW264.7 cells treated with or without Kp-10 treatment for 20 min were lysed and subjected to anti-Src IP (e) and quantification of protein levels (f). g, h Src and Dusp18 co-localization was analyzed by IF staining in primary pre-osteoclasts treated with 10 nM Kp-10 treatment for 20 min. Representative images of endogenous Dusp18 and Src were shown by TIRF microscopy (g), and MOC was used to quantify the degree of colocalization in cells from multiple images taken randomly (h). Scale bar, 50 µm. i–m IB and quantification of protein levels analysis. Anti-Flag IP derived from 293 T cells transfected with HA-Src, GPR54-myc, and either DUSP18-Flag or DUSP18 (C104S)-Flag constructs after Kp-10 treatment for 20 min (i) and quantification of protein levels (j, k). […] Scale bars, 125 µm (n), and pits depth were quantified by confocal microscopy (o). […] P values were determined by one-way ANOVA analysis (d, f, j, k, m, o) or by two-tailed Student’s t-test (h). […]

[3] = tested on: giant cell tumor of bone (GCT) cells; assay: TRAP assay of osteoclast formation in human giant cell tumor of bone (GCT) cells; assay type: cell-based; details: Kp-10 5–7 days
Procedure: BMMs (5 × 10^3 cells/well) were seeded into 96-well plates with a bone slice and incubated with M-CSF (10 ng/ml) and RANKL (50 ng/ml) with or without Kp-10, and the culture medium was changed every other day for 5–7 days. Osteoclasts were fixed and stained by phalloidin and DAPI. “Pits” on bone slice after osteoclast resorption were fixed with 4% Glutaraldehyde and stained with 1% toluidine blue, and pit depth was examined by laser-scanning confocal microscopy. For primary cultures of giant-cell tumor of bone (GCTB) cells, the use of all patient-derived tumor specimens was approved by the Institutional Review Board and the research ethics committee of Shanghai Changzheng Hospital, which appeared in the proceedings of the meeting of the Ethics Committee on 18 November 2014 (report number: 2014090). Informed consent obtained from all tissue donors was written. The GCTB cells were isolated from tumor samples derived from tumor resections in Shanghai Changzheng Hospital, 1 × 10^6 GCTB cells were seeded in a 24-well plate. Cells were stimulated with indicated doses of Kp-10 for 5–7 days. The medium was changed every 2 days. Osteoclasts were fixed and stained using the TRAP-staining kit (Sigma-Aldrich, 387A-1KT).

[4] = tested on: DUSP18 / GPR54 interaction; assay: Co-IP: interaction of DUSP18 with GPR54 in transfected 293T cells; assay type: cell-based, human; details: 293T cells transfected with DUSP18-HA and GPR54-Flag, Kp-10 (10 nM) 20 min
Procedure: Data represent means ± SEM. P values were determined by one-way ANOVA analysis (b, c, e, g, i, k). Representative results were obtained from at least three independent experiments. Source data are provided as a Source Data file.
Whole-cell proteins were extracted using 1x RIPA buffer (25 mM Tris, pH7.5, 150 mM NaCl, 0.5% Sodium deoxycholate, 1% Triton-X-100) supplemented with protease inhibitors (Complete Mini, Roche) and phosphatase inhibitors (phosphatase inhibitor cocktail set I and II, Calbiochem). Immunoprecipitation and immunoblotting with indicated antibodies were performed as described in Supplementary Table 1. Image Jsoftware (V1.52) was used for quantification analysis. Uncropped and unprocessed blots are presented in the Supplementary Information file.
Supplementary Fig. 6 a, b IB and quantification of protein levels analysis. […] Error bars are ± SEM. P-values were determined by two-tailed Student’s t-test (b, e) or by one-way ANOVA analysis (h, j). *P <0.05, **P <0.01, ***P <0.001, ****P <0.0001. Representative results were observed from at least three independent experiments. Source data are provided as a Source Data file.

[5] = tested on: osteoblast differentiation; assay: osteoblast differentiation; assay type: cell-based, mouse
Procedure: For osteoblast differentiation analyses in vitro, we isolated bone marrow mesenchymal stem cells (MSCs) from femurs and tibias of 8-week-old WT and Kiss1^−/−, Gpr54^−/− and Dusp18^−/− mice using a 1 ml syringe with a 26 G needle. MSCs were seeded into 12-well plates at a concentration of 1 × 10^5 cells per well. Cells were incubated with 50 µg/mL ascorbic acid, 10 mmol/L beta-glycerophosphate and 10 nmol/L dexamethasone. The medium was replaced every 2 days during the incubation period. Alkaline phosphatase (ALP) activity was assayed using the assay mixtures containing 0.1 M 2-amino-2-methyl-1-propanol, 1 mM MgCl2, 8 mM p-nitrophenylphosphate disodium (Sigma). For determination of mineralization, cells were fixed with 95% ethanol and stained with AgNO3 by the von Kossa method.

Kisspeptin-10 [Kp-10]
phosphatases increasing after Kp-10 stimulation [1]: three increasing phosphatases including DUSP18, PTPN6 and PPP1CA were identified
heterotrimer complex formation with DUSP18 (C104S) [2]: but not when the catalytic center of DUSP18 was killed
osteoclast formation [3]: suppressed osteoclast formation; also recorded: dose-dependently suppressed
interaction of DUSP18 with GPR54 [4]: dose-dependently induced the interaction
osteoblast differentiation, low dose ([5]; Kp-10 0.01 nM and 0.1 nM): effectively suppressed osteoblast differentiation
osteoblast differentiation ([5]; upon Kp-10 stimulation, ALP and von Kossa staining): dose-dependently suppressed
